In BindingDB's records for doi:10.1021/jm00164a028 (Wyeth Research, 1990):

biological target: Thromboxane-A synthase (Oryctolagus cuniculus); experiment: Inhibition of Thromboxane A2 synthetase in rabbit platelets

Row | SMILES | IC50
1 | CCOC(=O)C1=C(Cn2ccnc2)N=C(C)C(C(=O)OC(C)C)C1c1cccc([N+](=O)[O-])c1 (stereo not drawn) | 2 µM
2 | CCOC(=O)C1=C(Cn2ccnc2)N=C(C)C(C(=O)OC)C1c1cccc([N+](=O)[O-])c1 (stereo not drawn) | 5 µM
3 | CCOC(=O)C1=C(COCCn2ccnc2)N=C(C)C(C(=O)OC)C1c1cccc([N+](=O)[O-])c1 (stereo not drawn) | 115 µM
4 | CCOC(=O)C1=C(CCn2ccnc2)N=C(C)C(C(=O)OCC)C1c1cccc([N+](=O)[O-])c1 (stereo not drawn) | 11 µM
5 | CCOC(=O)C1=C(Cn2ccnc2)N=C(C)C(C(=O)OCC)C1c1cccc([N+](=O)[O-])c1 (stereo not drawn) | 1.4 µM

The remaining molecules from weak to strong by IC50, led by results:

Row | IC50 | SMILES
6 | 23 µM | CCOC(=O)C1=C(Cn2ccnc2)N=C(C)C(C(=O)OC(C)(C)C)C1c1cccc([N+](=O)[O-])c1 (stereo not drawn)
7 | 16 µM | CCOC(=O)C1=C(Cn2ccnc2)N=C(C)C(C(=O)OC)C1c1cccc(C(F)(F)F)c1Cl (stereo not drawn)
8 | 3.2 µM | CCOC(=O)C1=C(Cn2ccnc2)N=C(C)C(C(=O)OC)C1c1ccccc1[N+](=O)[O-] (stereo not drawn)
